The test system of series [1] is spontaneously hypertensive rats. Put plainly: Antihypertensive activity: systolic blood pressure measured indirectly on conscious SHR after peroral dosing. It is filed as in vivo, rat. Particulars: for Systolic Blood Pressure, Pretreatment: SHR (male, 13 months, 2 per sample), before 35 mg/kg peroral single dose; for Systolic Blood Pressure, 4 hrs after administration / Δ Blood Pressure: SHR; for Systolic Blood Pressure, 4 hrs after administration: 4 hours after 35 mg/kg peroral single dose; for Δ Blood Pressure: 4 hours after 35 mg/kg peroral single dose versus pretreatment. How it is done: The antihypertensive activity of part of the amino acid derivatives prepared above, was determined.
As subject animals 2 SHR were used which had been trained enough and been confirmed to be hypertensive spontaneously hypertensive rats (male, 13 months of age, the body weight of 400 to 440 g) per sample.
As an instrument for measuring the blood pressure a Programmed Electro-Sphygmomanometer PE-300 (Narco Co., U.S.A.) was used, and the blood pressure was indirectly measured on conscious rats.
An aqueous solution or suspension of a sample (35 mg/kg) was once force-fed into the stomach by means of a peroral probe.
An antihypertensive activity of part of the amino acid derivatives prepared above was determined.
As subject animals there were used 2 SHR which had been trained enough and been confirmed to be hypertensive spontaneously hypertensive rats (male, 13 months of age, the body weight of 400~440 g) per sample.
As an instrument for measuring the blood pressure there was used Programmed Electro-Sphygmomanometer PE-300 (Narco Co., U.S.A.), and the blood pressure was indirectly measured on conscious rats.
An antihypertensive activity of the product prepared above was determined.

The subject of series [2] is mouse.
Series [3] deals with rat.
The conditions of series [4]: 27.7° C.

Consider `COP(=O)(CCc1ccccc1)N[C@@H](CCSC)C(=O)N1CCC[C@H]1C(=O)N1CCC[C@H]1C(=O)O.NC(N)=NCCC[C@H](N)C(=O)O` (stereo partly drawn) [Example 41, N--(O--methyl-P--phenethylphosphonyl)-L-methionyl-L-prolyl-L-proline L-arginine salt], for which, in series [1], the “Systolic Blood Pressure, Pretreatment” value was 203 mm Hg; the “Systolic Blood Pressure, 4 hrs after administration” value (from here on “Systolic Blood Pressure, 4 hrs”) came to 172 mm Hg; the “Δ Blood Pressure” value was -31 mm Hg.

Regarding `C[C@H](NP(=O)(CCc1ccccc1)OCc1ccccc1)C(=O)N1CCC[C@H]1C(=O)N1CCC[C@H]1C(=O)[O-].[Na+]` (stereo partly drawn) [Example 42, N--(O--benzyl-P--phenethylphosphonyl)-L-alanyl-L-prolyl-L-proline sodium salt], in series [1], the “Systolic Blood Pressure, Pretreatment” value amounted to 194 mm Hg; the “Systolic Blood Pressure, 4 hrs” value is 180 mm Hg; the “Δ Blood Pressure” value was -14 mm Hg.

Regarding `CCOP(=O)(CCc1ccccc1)N[C@@H](C)C(=O)N1CCC[C@H]1C(=O)N1CCC[C@H]1C(=O)[O-].[Na+]` (stereo partly drawn) [Example 43, N--(O--ethyl-P--phenethylphosphonyl)-L-alanyl-L-prolyl-L-proline sodium salt], in series [1], the “Systolic Blood Pressure, Pretreatment” value turned out to be 195 mm Hg; the “Systolic Blood Pressure, 4 hrs” value was 171 mm Hg; the “Δ Blood Pressure” value is -24 mm Hg.

Turning to `CSCC[C@H](NP(=O)(CCc1ccccc1)OCc1ccccc1)C(=O)N1CCC[C@H]1C(=O)N1CCC[C@H]1C(=O)[O-].CSCC[C@H](NP(=O)(CCc1ccccc1)OCc1ccccc1)C(=O)N1CCC[C@H]1C(=O)N1CCC[C@H]1C(=O)[O-].[Ca+2]` (stereo partly drawn) [Example 55, N-(O-Benzyl-P-phenethylphosphonyl)-L-methionyl-L-prolyl-L-proline calcium salt], in series [1], the “Systolic Blood Pressure, Pretreatment” value is 210 mm Hg; the “Systolic Blood Pressure, 4 hrs” value is 180 mm Hg; the “Δ Blood Pressure” value is on record as -30 mm Hg.

Take `C[C@H](NP(=O)(O)OCc1ccccc1)C(=O)N1CCC[C@H]1C(=O)N1CCC[C@H]1C(=O)O.C[C@H](NP(=O)(O)OCc1ccccc1)C(=O)N1CCC[C@H]1C(=O)N1CCC[C@H]1C(=O)O.N.N` [Example 57, Monobenzylphosphoryl-L-alanyl-L-propyl-L-proline diammonium salt]: in series [1], the “Systolic Blood Pressure, Pretreatment” value is given as 195 mm Hg; the “Systolic Blood Pressure, 4 hrs” value came out at 167 mm Hg; the “Δ Blood Pressure” value is -28 mm Hg.

As to `COC(=O)[C@@H]1CCCN1C(=O)[C@@H]1CCCN1C(=O)[C@H](C)NP(=O)([O-])CCc1ccccc1.[Na+]` [Example 80, N-Phenethylphosphonyl-L-alanyl-L-prolyl-L-proline methylester sodium salt], in series [1], the “Systolic Blood Pressure, Pretreatment” value is 193 mm Hg; the “Systolic Blood Pressure, 4 hrs” value stood at 183 mm Hg; the “Δ Blood Pressure” value was -10 mm Hg.

`C[C@H](NP(=O)(OCc1ccccc1)OCc1ccccc1)C(=O)N1CCC[C@H]1C(=O)N1CCC[C@H]1C(=O)O` [Example 84, Dibenzylphosphoryl-L-alanyl-L-propyl-L-proline in the crystalline form]: in series [1], the “Systolic Blood Pressure, Pretreatment” value was found to be 219 mm Hg; the “Systolic Blood Pressure, 4 hrs” value came out at 188 mm Hg; the “Δ Blood Pressure” value is reported as -31 mm Hg. Besides, the “Median lethal dose (LD50)” value in series [2] is given as “more than 15 g/kg”. In addition, in series [3], the “Median lethal dose (LD50)” value is reported as “more than 15 g/kg”. Moreover, the “.rho.Ka” value in series [4] was determined as 3.92.

Regarding “Dibenzylphoshoryl-L-alanyl-L-prolyl-L-alanine L-arginine salt [Example 12]”, in series [1], the “Systolic Blood Pressure, Pretreatment” value was 193 mm Hg; the “Systolic Blood Pressure, 4 hrs” value is given as 182 mm Hg; the “Δ Blood Pressure” value is -11 mm Hg.

As for “Dibenzylphosphoryl-L-alanyl-L-prolyl-D-alanine L-arginine salt [Example 14]”, in series [1], the “Systolic Blood Pressure, Pretreatment” value is 183 mm Hg; the “Systolic Blood Pressure, 4 hrs” value is 161 mm Hg; the “Δ Blood Pressure” value was -22 mm Hg.

On to “Dibenzylphosphoryl-L-alanyl-L-prolyl-D-proline L-arginine salt [Example 15]”, for which, in series [1], the “Systolic Blood Pressure, Pretreatment” value is listed as 182 mm Hg; the “Systolic Blood Pressure, 4 hrs” value is 167 mm Hg; the “Δ Blood Pressure” value was -15 mm Hg.

On to “Dibenzylphosphoryl-L-alanyl-L-prolyl-L-aspartic acid L-arginine salt [Example 3]”, for which, in series [1], the “Systolic Blood Pressure, Pretreatment” value is given as 208 mm Hg; the “Systolic Blood Pressure, 4 hrs” value was found to be 197 mm Hg; the “Δ Blood Pressure” value was -11 mm Hg.

Regarding “Dibenzylphosphoryl-L-alanyl-L-prolyl-L-proline L-arginine salt [Example 1]”, in series [1], the “Systolic Blood Pressure, Pretreatment” value came to 205 mm Hg; the “Systolic Blood Pressure, 4 hrs” value is reported as 170 mm Hg; the “Δ Blood Pressure” value was -35 mm Hg.

Take “Dibenzylphosphoryl-L-alanyl-L-prolyl-L-proline L-lysine salt [Example 24]”: in series [1], the “Systolic Blood Pressure, Pretreatment” value is on record as 192 mm Hg; the “Systolic Blood Pressure, 4 hrs” value is given as 161 mm Hg; the “Δ Blood Pressure” value was -31 mm Hg.

Take “Dibenzylphosphoryl-L-alanyl-L-prolyl-L-proline calcium salt [Example 53]”: in series [1], the “Systolic Blood Pressure, Pretreatment” value is 220 mm Hg; the “Systolic Blood Pressure, 4 hrs” value came to 188 mm Hg; the “Δ Blood Pressure” value was -32 mm Hg.

With “Dibenzylphosphoryl-L-alanyl-L-prolyl-L-proline dicyclohexylamine salt [Example 74]”, in series [1], the “Systolic Blood Pressure, Pretreatment” value turned out to be 195 mm Hg; the “Systolic Blood Pressure, 4 hrs” value was determined as 165 mm Hg; the “Δ Blood Pressure” value is on record as -30 mm Hg.

Take “Dibenzylphosphoryl-L-alanyl-L-prolyl-L-serine L-arginine salt [Example 2]”: in series [1], the “Systolic Blood Pressure, Pretreatment” value was 202 mm Hg; the “Systolic Blood Pressure, 4 hrs” value is recorded as 180 mm Hg; the “Δ Blood Pressure” value was -22 mm Hg.

As to “Dibenzylphosphoryl-L-alanyl-N-(2-indanyl)-glycyl-L-proline L-arginine salt [Example 31]”, in series [1], the “Systolic Blood Pressure, Pretreatment” value stood at 199 mm Hg; the “Systolic Blood Pressure, 4 hrs” value is on record as 169 mm Hg; the “Δ Blood Pressure” value is reported as -30 mm Hg.

Regarding “Dibenzylphosphoryl-L-isoleucyl-L-prolyl-L-proline L-arginine salt [Example 18]”, in series [1], the “Systolic Blood Pressure, Pretreatment” value is reported as 192 mm Hg; the “Systolic Blood Pressure, 4 hrs” value is on record as 171 mm Hg; the “Δ Blood Pressure” value was -21 mm Hg.

As to “Dibenzylphosphoryl-L-prolyl-L-tyrosine L-arginine salt [Example 4]”, in series [1], the “Systolic Blood Pressure, Pretreatment” value is listed as 207 mm Hg; the “Systolic Blood Pressure, 4 hrs” value is on record as 195 mm Hg; the “Δ Blood Pressure” value is -12 mm Hg.

For “Dibenzylphosphoryl-glycyl-L-prolyl-L-proline L-arginine salt [Example 19]”, in series [1], the “Systolic Blood Pressure, Pretreatment” value came out at 196 mm Hg; the “Systolic Blood Pressure, 4 hrs” value turned out to be 181 mm Hg; the “Δ Blood Pressure” value was -15 mm Hg.

As to “Diethylphosphoryl-L-alanyl-L-prolyl-L-proline L-arginine salt [Example 25]”, in series [1], the “Systolic Blood Pressure, Pretreatment” value stood at 183 mm Hg; the “Systolic Blood Pressure, 4 hrs” value is 156 mm Hg; the “Δ Blood Pressure” value was -27 mm Hg.

As to “Diethylphosphoryl-L-lysyl-L-prolyl-L-proline L-arginine salt [Example 23]”, in series [1], the “Systolic Blood Pressure, Pretreatment” value was found to be 190 mm Hg; the “Systolic Blood Pressure, 4 hrs” value stood at 165 mm Hg; the “Δ Blood Pressure” value is -25 mm Hg.

Regarding “Diethylphosphoryl-L-lysyl-L-prolyl-L-proline calcium salt [Example 56]”, in series [1], the “Systolic Blood Pressure, Pretreatment” value is 204 mm Hg; the “Systolic Blood Pressure, 4 hrs” value is listed as 181 mm Hg; the “Δ Blood Pressure” value is recorded as -23 mm Hg.

Turning to “Diethylphosphoryl-L-methionyl-L-prolyl-L-proline L-argine salt [Example 44]”, in series [1], the “Systolic Blood Pressure, Pretreatment” value is recorded as 189 mm Hg; the “Systolic Blood Pressure, 4 hrs” value is recorded as 179 mm Hg; the “Δ Blood Pressure” value is on record as -10 mm Hg.

“N-Phenethylphosphonyl-L-methionyl-L-prolyl-L-proline 2 sodium salt [Example 34]”: in series [1], the “Systolic Blood Pressure, Pretreatment” value turned out to be 183 mm Hg; the “Systolic Blood Pressure, 4 hrs” value turned out to be 154 mm Hg; the “Δ Blood Pressure” value is listed as -29 mm Hg.

For the compound “Phosphoryl-L-alanyl-L-prolyl-L-proline L-arginine salt [Example 8]”, in series [1], the “Systolic Blood Pressure, Pretreatment” value is reported as 196 mm Hg; the “Systolic Blood Pressure, 4 hrs” value is 177 mm Hg; the “Δ Blood Pressure” value was -19 mm Hg.

For the origin of these results see patent US4590178A (Ajinomoto Company, Incorporated, priority 1982, dated 1986).
